In ChEMBL document CHEMBL4819126, “Enantiomeric profiling of a chiral benzothiazole necroptosis inhibitor” (Bioorg Med Chem Lett, 2021):
pEC50, pIC50, pKd: −log10 of the molar value. Calls of active or inactive are those of the source. The calls are words filed in the database; no cut-off is given here.

What was measured:
[1] = biological target: T1, Receptor-interacting serine/threonine-protein kinase 1 (Mus musculus) (UniProt Q60855); assay: Inhibition of RIPK1 in mouse L929 cells assessed as TZ-induced RIPK3 phosphorylation at 1 uM measured upto 4 hrs by Western blot analysis; format: cell-based; conditions: time hrs <=4
T1 sequence (whole entry): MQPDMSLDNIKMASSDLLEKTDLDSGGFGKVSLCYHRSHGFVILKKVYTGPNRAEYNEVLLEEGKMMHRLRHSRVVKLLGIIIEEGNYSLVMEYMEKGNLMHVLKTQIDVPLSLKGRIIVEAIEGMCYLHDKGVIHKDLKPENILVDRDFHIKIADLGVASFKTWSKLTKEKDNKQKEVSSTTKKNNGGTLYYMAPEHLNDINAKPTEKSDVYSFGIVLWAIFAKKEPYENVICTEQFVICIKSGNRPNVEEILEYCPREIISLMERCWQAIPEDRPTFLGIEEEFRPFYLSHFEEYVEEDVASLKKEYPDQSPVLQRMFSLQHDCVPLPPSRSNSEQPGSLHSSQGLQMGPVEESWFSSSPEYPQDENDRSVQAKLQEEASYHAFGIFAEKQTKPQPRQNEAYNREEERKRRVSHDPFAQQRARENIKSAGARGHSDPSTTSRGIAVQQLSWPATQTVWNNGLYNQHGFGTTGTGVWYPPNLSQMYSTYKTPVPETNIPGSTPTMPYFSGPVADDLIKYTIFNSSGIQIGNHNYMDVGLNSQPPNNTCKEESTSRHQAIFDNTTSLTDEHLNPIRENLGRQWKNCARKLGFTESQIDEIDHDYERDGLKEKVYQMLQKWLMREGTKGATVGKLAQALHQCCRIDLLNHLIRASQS

HT-29 [2] = assay: Anti-necroptotic activity in human HT-29 cells assessed as inhibition of TSZ induced necroptosis measured after 12 hrs; format: functional, cell-based; conditions: dose 0.025-25 µM
[3] = biological target: Receptor-interacting serine/threonine-protein kinase 3 (Homo sapiens, UniProt Q9Y572); assay: Inhibition of human wild type RIPK3 (M1 to Q307) expressed in bacterial system by kinomescan assay
Receptor-interacting serine/threonine-protein kinase 3, sequence (Q9Y572 whole entry): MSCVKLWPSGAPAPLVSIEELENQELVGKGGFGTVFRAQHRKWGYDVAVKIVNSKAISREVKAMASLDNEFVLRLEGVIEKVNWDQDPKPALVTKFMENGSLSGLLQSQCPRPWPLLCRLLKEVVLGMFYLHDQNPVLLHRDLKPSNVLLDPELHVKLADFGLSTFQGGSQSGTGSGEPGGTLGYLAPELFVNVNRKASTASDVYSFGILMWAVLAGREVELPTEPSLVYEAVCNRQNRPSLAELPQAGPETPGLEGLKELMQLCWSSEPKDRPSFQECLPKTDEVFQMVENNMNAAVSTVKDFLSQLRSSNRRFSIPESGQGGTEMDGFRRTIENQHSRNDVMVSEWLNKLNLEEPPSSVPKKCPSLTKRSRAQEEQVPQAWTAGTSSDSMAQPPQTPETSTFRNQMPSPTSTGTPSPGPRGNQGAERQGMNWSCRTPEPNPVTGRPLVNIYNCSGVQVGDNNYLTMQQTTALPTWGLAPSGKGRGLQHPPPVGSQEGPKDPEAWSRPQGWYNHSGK

[4] = biological target: T2, Receptor-interacting serine/threonine-protein kinase 1 (Homo sapiens) (UniProt Q13546); assay: Inhibition of RIPK1 in human HT-29 cells assessed as inhibition of TSZ-induced RIPK1 phosphorylation at 1 uM measured upto 4 hrs by Western blot analysis; format: cell-based; conditions: time hrs <=4
T2 sequence (whole entry): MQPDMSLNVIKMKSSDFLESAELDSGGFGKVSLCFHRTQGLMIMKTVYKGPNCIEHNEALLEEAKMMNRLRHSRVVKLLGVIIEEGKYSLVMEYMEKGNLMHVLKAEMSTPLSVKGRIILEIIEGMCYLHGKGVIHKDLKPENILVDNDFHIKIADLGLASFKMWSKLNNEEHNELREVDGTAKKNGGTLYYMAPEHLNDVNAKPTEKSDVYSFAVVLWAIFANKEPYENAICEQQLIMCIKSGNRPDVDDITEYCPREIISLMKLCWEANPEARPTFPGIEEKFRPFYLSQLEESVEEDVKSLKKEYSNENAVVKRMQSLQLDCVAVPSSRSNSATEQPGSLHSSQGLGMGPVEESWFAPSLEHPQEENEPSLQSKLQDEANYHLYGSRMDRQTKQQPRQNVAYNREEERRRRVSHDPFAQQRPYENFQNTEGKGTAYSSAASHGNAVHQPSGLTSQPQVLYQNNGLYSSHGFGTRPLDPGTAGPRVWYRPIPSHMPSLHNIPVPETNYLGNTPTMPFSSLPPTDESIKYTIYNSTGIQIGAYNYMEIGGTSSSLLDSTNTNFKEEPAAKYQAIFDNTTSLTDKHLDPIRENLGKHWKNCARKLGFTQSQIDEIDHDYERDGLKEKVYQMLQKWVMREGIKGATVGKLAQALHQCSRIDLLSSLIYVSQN

L929 [5] = assay: Anti-necroptotic activity in mouse L929 cells assessed as inhibition of TZ-induced necroptosis measured after 9 hrs; format: functional, cell-based
[6] = biological target: T2, Receptor-interacting serine/threonine-protein kinase 1 (Homo sapiens); assay: Inhibition of RIPK1 in human HT-29 cells assessed as inhibition of TSZ-induced MLKL phosphorylation at 1 uM measured upto 4 hrs by Western blot analysis; format: cell-based; conditions: time hrs <=4
[7] = biological target: T3, Receptor-interacting serine/threonine-protein kinase 1 (Homo sapiens, UniProt Q13546); assay: Inhibition of human wild type RIPK1 (M1 to K305) expressed in bacterial system by kinomescan assay
T3 sequence (Q13546 whole entry): T2 sequence (whole entry)

L929 [8] = assay: Anti-necroptotic activity in mouse L929 cells assessed as inhibition of mTNFalpha-induced necroptosis measured after 9 hrs; format: functional
HT-29 [9] = assay: Anti-necroptotic activity in human HT-29 cells assessed as inhibition of TNFalpha/TS induced necroptosis uM measured after 36 hrs; format: functional, cell-based
[10] = biological target: T1, Receptor-interacting serine/threonine-protein kinase 1 (Mus musculus); assay: Inhibition of RIPK1 in mouse L929 cells assessed as TZ-induced MLKL phosphorylation at 1 uM measured upto 4 hrs by Western blot analysis; format: cell-based; conditions: time hrs <=4
[11] = biological target: T2, Receptor-interacting serine/threonine-protein kinase 1 (Homo sapiens); assay: Inhibition of RIPK1 in human HT-29 cells assessed as inhibition of TSZ-induced RIPK3 phosphorylation at 1 uM measured upto 4 hrs by Western blot analysis; format: cell-based; conditions: time hrs <=4
HT-29 [12] = assay: Anti-necroptotic activity in human HT-29 cells assessed as inhibition of TNFalpha/Z-VAD-fmk (TCZ)-induced necroptosis pretreated for 8 to 12 hrs; format: functional, cell-based
L929 [13] = assay: Anti-necroptotic activity against TNFalph/Z-VAD-FMK-induced mouse L929 cells assessed as cell viability measured after 19 to 21 hrs by CellTiter-Glo luminescent cell viability assay; format: functional, cell-based
HT-29 [14] = assay: Anti-necroptotic activity in human HT-29 cells assessed as inhibition of TSZ induced necroptosis at 0.25 uM measured after 12 hrs; format: functional; set-up: scale not given: the % may be the effect or the level left
HT-29 [15] = assay: Anti-necroptotic activity in human HT-29 cells assessed as inhibition of TSZ induced necroptosis at 2.5 uM measured after 12 hrs; format: functional, cell-based
U-937 = assay: Anti-necroptotic activity against TNFalph/Z-VAD-FMK-induced human U-937 cells assessed as cell viability measured after 19 to 21 hrs by CellTiter-Glo luminescent cell viability assay; format: functional, cell-based

inhibition [1] | pKd [3] | inhibition [4] | inhibition [6] | pKd [7] | inhibition [10] | inhibition [11] | Compound | Activity (HT-29 [2]) | Activity (L929 [5]) | inhibition (INH) (L929 [8]) [%] | Activity (HT-29 [9]) | pEC50 (HT-29 [12]) | pIC50 (L929 [13]) | Activity (HT-29 [14]) [%] | inhibition (HT-29 [15]) | pIC50 (U-937)
100% | 6.57 | Active | Active | 6.32 | 100% | Active | CC1(C)CC1C(=O)Nc1nc2ccc(Oc3ccc(F)c(NC(=O)Cc4cccc(C(F)(F)F)c4)c3)cc2s1 (racemic) | Dose-Dependent Effect | Dose-Dependent Effect | 100 | Dose-Dependent Effect | 6.51 |  |  |  | 
 |  |  |  |  |  |  | CC(C)(C)C(=O)N1N=CC[C@H]1c1ccccc1 |  |  |  |  |  | 8.51 |  |  | 
Active | 6.84 | Active | Active | 6.37 | Active | Active | CC1(C)C[C@@H]1C(=O)Nc1nc2ccc(Oc3ccc(F)c(NC(=O)Cc4cccc(C(F)(F)F)c4)c3)cc2s1 |  | Dose-Dependent Effect | 100 | Dose-Dependent Effect | 6.82 |  | 90 | Active | 
Active | 6.19 | Active | Active | 5.77 | Active | Active | CC1(C)C[C@H]1C(=O)Nc1nc2ccc(Oc3ccc(F)c(NC(=O)Cc4cccc(C(F)(F)F)c4)c3)cc2s1 |  | Dose-Dependent Effect | 100 | Dose-Dependent Effect | 6.54 |  |  | Active | 
 |  |  |  |  |  |  | CN1C(=O)[C@H](NC(=O)c2cc(Cc3ccccc3)on2)COc2ccccc21 |  |  |  |  |  |  |  |  | < 5.00
 |  |  |  |  |  |  | CC(C)(C)C(=O)N1N=CC[C@@H]1c1ccccc1 |  |  |  |  |  |  |  |  | < 5.00
 |  |  |  |  |  |  | CN1C(=O)[C@@H](NC(=O)c2cc(Cc3ccccc3)on2)COc2ccccc21 |  |  |  |  |  |  |  |  | 8.00
